Results reported in US12358907B2, “Substituted pyrrolidine amides III” (GRÜNENTHAL GMBH, priority 2019, dated 2025).
Where two headings read alike, the source gives them in different places.

Biological target: glucocorticoid receptor (GAL4 DBD-GR) (Homo sapiens (Human), UniProt P04150)
Assay: GR cell-based assays (GRE agonist / GRE antagonist), CHO-Gal4/GR luciferase reporter
Description: Potential selective glucocorticoid receptor modulators of this intervention can be tested for modulation of the activity of the glucocorticoid receptor using cell-based assays. These assays involve a Chinese hamster ovary (CHO) cell line which contains fragments of the glucocorticoid receptor as well as fusion proteins. The glucocorticoid receptor fragments used are capable of binding the ligand (e.g. beclomethasone) to identify molecules that compete for binding with glucocorticoid receptor ligands. In more detail, the glucocorticoid receptor ligand binding domain is fused to the DNA binding domain (DBD) of the transcription factor GAL4 (GAL4 DBD-GR) and is stably integrated into a CHO cell line containing a GAL4-UAS-Luciferase reporter construct. […] After cell lysis the luminescence that is produced by luciferase after addition of the substrate is detected and EC50 or IC50 values can be calcuated. Engagement of molecules which induce gene expression via glucocortocoid receptor binding to the DNA leads to expression of the luciferase gene under the control of the fusion protein GAL4 DBD-GR and therefore to a dose-dependent increase of the luminescence signal. Binding of molecules which repress beclomethasone-induced gene expression of the luciferase gene under the control of the fusion protein GAL4 DBD-GR leads to a dose-dependent reduction of the luminescence signal.
The reporter cell line CHO-Gal4/GR consisted of a chinese hamster ovary (CHO) cell line (Leibniz Institute DSMZ—German Collection of Microorganisms and Cell Cultures GmbH: ACC-110) containing a firefly luciferase gene under the control of the GR ligand binding domain fused to the DNA binding domain (DBD) of GAL4 (GAL4 DBD-GR) stably integrated into CHO cells. This cell line was established by stable transfection of CHO cells with a GAL4-UAS-Luciferase reporter construct. In a subsequent step the ligand binding domain of the GR cloned into pIRES2-EGFP-GAL4 containing the DNA binding domain of GAL4 from pFA-AT2 was transfected. This fusion construct activated firefly luciferase expression under the control of a multimerized GAL4 upstream activation sequence (UAS). The signal of the emitted luminescence was recorded by the FLIPR^TETRA. This allowed for specific detection of ligand-induced activation of the GR and therefore for the identification of compounds with agonistic properties. The GAL4/UAS reporter was premixed with a vector that constitutively expressed Renilla luciferase, which served as an internal positive control for transfection efficiency.
The complete culture medium for the assay was: • DMEM F-12 (1:1) MIXTURE (LONZA cat. No: BE04-687F/U1) 500 mL • 5 mL of 100 mM Sodium Pyruvate (LONZA cat. No: BE12-115E) • 25 mL of 7.5% Sodium Bicarbonate (LONZA cat. No BE17-613E) • 6.5 mL of 1 M Hepes (LONZA cat. No: BE17-737E) • 5 mL of 100× Penicillin/Streptomycin (LONZA cat. No DE17-602E) • 50 mL of Fetal Bovine Serum (Euroclone cat. No ECS 0180L) • 0.25 mL of 10 mg/mL Puromycin (InvivoGen cat.: ant-pr-1) • 0.5 mL of 100 mg/mL Zeocin (InvivoGen cat.: ant-zn-1)
Cryo-preserved CHO-Gal4/GR cells were suspended in complete medium and 5000 cells/25 μl/well were seeded into the wells of 384-well polystyrene assay plates (Thermo Scientific, cat. #4332) and cultured at 37° C., 5% CO2 and 95% humidity. After 24 hours growth medium was carefully removed and replaced by 30 μl Opti-MEM (GIBCO, cat. #31985062) as assay buffer. To test the compounds an 8-point half-log compound dilution curve was generated in 100% DMSO starting from a 2 mM stock and compounds were then diluted 1:50 in Opti-MEM. 10 μl of compounds were then added to the wells containing 30 μl Opti-MEM resulting in a final assay concentration range from 10 μM to 0.003 μM in 0.5% DMSO. Compounds were tested at 8 concentrations in quadruplicate data points. […] Finally, cells were lysed with 20 μl of Triton/Luciferin solution and the signal of the emitted luminescence was recorded at the FLIPR^TETRA for 2 minutes. […]

[1] = CHO-Gal4/GR reporter cells, agonist mode (EC50) or antagonist mode against beclometasone (IC50), 6 hour incubation

Chain of glucocorticoid receptor (GAL4 DBD-GR) (P04150 524-758): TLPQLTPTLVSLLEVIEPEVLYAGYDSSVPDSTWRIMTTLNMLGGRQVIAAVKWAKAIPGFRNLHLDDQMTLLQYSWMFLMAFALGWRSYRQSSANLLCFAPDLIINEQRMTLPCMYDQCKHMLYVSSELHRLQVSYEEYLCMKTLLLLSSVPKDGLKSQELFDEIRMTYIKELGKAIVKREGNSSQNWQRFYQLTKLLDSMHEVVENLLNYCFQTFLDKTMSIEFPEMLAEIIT

`COc1ccc([C@@H]2[C@@H](NC(=O)c3scnc3C)[C@H](C)C(=O)N2c2ccc3c(cnn3-c3ccc(F)cc3)c2)cc1` (racemic) [Example 82, N-[rac-(2R,3S,4S)-1-[1-(4-Fluorophenyl)-1H-indazol-5-yl]-2-(4-methoxyphenyl)-4-methyl-5-oxo-pyrrolidin-3-yl]-4-methyl-thiazole-5-carboxylic acid amide] was tested, and the IC50 (read-out: IC50 or EC50) was 100 to 1000 nM.

Work on `CC1C(=O)N(c2ccc3c(cnn3-c3ccc(F)cc3)c2)C(c2ccccc2Cl)C1NC(=O)c1ccn(C)n1` (racemic) [Example 94, N-[rac-(2R,3S,4R)-2-(2-Chlorophenyl)-1-[1-(4-fluorophenyl)-1H-indazol-5-yl]-4-methyl-5-oxo-pyrrolidin-3-yl]-1-methyl-1H-pyrazole-3-carboxylic acid amide] yielded an IC50 (read-out: IC50 or EC50) of less than 100 nM.

With `C[C@@H]1C(=O)N(c2ccc3c(cnn3-c3ccc(F)cc3)c2)[C@H](c2ccc(Cl)s2)[C@H]1NC(=O)c1cccnc1` (racemic) [Example 111, N-[rac-(2S,3S,4S)-2-(5-Chloro-thiophen-2-yl)-1-[1-(4-fluorophenyl)-1H-indazol-5-yl]-4-methyl-5-oxo-pyrrolidin-3-yl]-pyridine-3-carboxylic acid amide] the IC50 (read-out: IC50 or EC50) was less than 100 nM.

Compound `Cc1ncsc1C(=O)N[C@@H]1[C@@H](c2ccccc2)N(c2ccc3c(cnn3-c3ccc(F)cc3)c2)C(=O)C1(C)C` [Example 38b, N-((2R,3S)-1-(1-(4-fluorophenyl)-1H-indazol-5-yl)-4,4-dimethyl-5-oxo-2-phenylpyrrolidin-3-yl)-4-methylthiazole-5-carboxamide] has an IC50 [1] of less than 100 nM.

Work on `Cc1ncsc1C(=O)N[C@H]1[C@H](c2ccccc2)N(c2ccc3c(cnn3-c3ccc(F)cc3)c2)C(=O)C1(C)C` [Example 38a, N-((2S,3R)-1-(1-(4-fluorophenyl)-1H-indazol-5-yl)-4,4-dimethyl-5-oxo-2-phenylpyrrolidin-3-yl)-4-methylthiazole-5-carboxamide] yielded an IC50 (read-out: IC50 or EC50) of 100 to 1000 nM.

`CC[C@@H]1[C@@H](NC(=O)C2CC2)[C@@](F)(Cc2ccccc2)C(=O)N1c1ccc2c(cnn2-c2ccc(F)cc2)c1` (racemic) [Example 137, N-(rac-(2R,3R,4S)-4-benzyl-2-ethyl-4-fluoro-1-(1-(4-fluorophenyl)-1H-indazol-5-yl)-5-oxopyrrolidin-3-yl)cyclopropanecarboxamide] was tested, and the IC50 (read-out: IC50 or EC50) was less than 100 nM.

For `C[C@H]1C(=O)N(c2ccc3c(cnn3-c3ccc(F)cc3)c2)[C@H](c2ccccc2Cl)[C@H]1NC(=O)c1cccnc1` (racemic) [Example 87, N-[rac-(2R,3S,4R)-2-(2-Chlorophenyl)-1-[1-(4-fluorophenyl)-1H-indazol-5-yl]-4-methyl-5-oxo-pyrrolidin-3-yl]-pyridine-3-carboxylic acid amide], the IC50 (read-out: IC50 or EC50) was less than 100 nM.

In the case of `CC1(C)C(=O)N(c2ccc3c(cnn3-c3ccc(F)cc3)c2)[C@H](c2ccccc2)[C@H]1NC(=O)c1cccnc1` [Example 42a, N-((2R,3S)-1-(1-(4-fluorophenyl)-1H-indazol-5-yl)-4,4-dimethyl-5-oxo-2-phenylpyrrolidin-3-yl)nicotinamide], the IC50 [1] is reported as less than 100 nM.

`C[C@@H]1C(=O)N(c2ccc3c(cnn3-c3ccc(F)cc3)c2)[C@H](c2ccc(Cl)s2)[C@H]1NC(=O)C1CC1` (racemic) [Example 108, N-[rac-(2S,3S,4S)-2-(5-Chloro-thiophen-2-yl)-1-[1-(4-fluorophenyl)-1H-indazol-5-yl]-4-methyl-5-oxo-pyrrolidin-3-yl]-cyclopropanecarboxylic acid amide] was tested, and the IC50 (read-out: IC50 or EC50) was less than 100 nM.

`O=C(N[C@@H]1[C@@H](c2ccccc2)N(c2ccc3c(cnn3-c3ccc(F)cc3)c2)C(=O)[C@@H]1CC(F)F)C1CC1` [Example 132, N-((2R,3S,4R)-4-(2,2-difluoroethyl)-1-(1-(4-fluorophenyl)-1H-indazol-5-yl)-5-oxo-2-phenylpyrrolidin-3-yl)cyclopropanecarboxamide] gave an IC50 [1] of less than 100 nM.

Work on `C[C@@]1(CC2CC2)C(=O)N(c2ccc3c(cnn3-c3ccc(F)cc3)c2)[C@H](c2ccccc2)[C@H]1NC(=O)C1CC1` (racemic) [Example 149, N-(rac-(2R,3S,4S)-4-(cyclopropylmethyl)-1-(1-(4-fluorophenyl)-1H-indazol-5-yl)-4-methyl-5-oxo-2-phenylpyrrolidin-3-yl)cyclopropanecarboxamide] yielded an IC50 (read-out: IC50 or EC50) of less than 100 nM.

With `C[C@@H]1C(=O)N(c2ccc3c(cnn3-c3ccc(F)cc3)c2)[C@H](c2ccccc2Cl)[C@H]1NS(C)(=O)=O` (racemic) [Example 93, N-[rac-(2R,3S,4S)-2-(2-Chlorophenyl)-1-[1-(4-fluorophenyl)-1H-indazol-5-yl]-4-methyl-5-oxo-pyrrolidin-3-yl]-methanesulfonic acid amide] the IC50 (read-out: IC50 or EC50) was less than 100 nM.

`Cc1cccc([C@@H]2[C@@H](NC(=O)c3ccn(C)n3)[C@H](C)C(=O)N2c2ccc3c(cnn3-c3ccc(F)cc3)c2)c1` (racemic) [Example 75, N-[rac-(2R,3S,4S)-1-[1-(4-Fluorophenyl)-1H-indazol-5-yl]-4-methyl-2-m-tolyl-5-oxo-pyrrolidin-3-yl]-1-methyl-1H-pyrazole-3-carboxylic acid amide] showed an IC50 (read-out: IC50 or EC50) of less than 100 nM.

For `C[C@@H]1C(=O)N(c2ccc3c(cnn3-c3ccc(F)cc3)c2)[C@H](c2ccc(Cl)s2)[C@H]1NC(=O)c1ccn(C)n1` (racemic) [Example 110, N-[rac-(2S,3S,4S)-2-(5-Chloro-thiophen-2-yl)-1-[1-(4-fluorophenyl)-1H-indazol-5-yl]-4-methyl-5-oxo-pyrrolidin-3-yl]-1-methyl-1H-pyrazole-3-carboxylic acid amide], the IC50 (read-out: IC50 or EC50) was less than 100 nM.

`C[C@@]1(c2ccc(Cl)s2)[C@@H](NC(=O)C2CC2)CC(=O)N1c1ccc2c(cnn2-c2ccc(F)cc2)c1` [Example 151, N-((2S,3S)-2-(5-chlorothiophen-2-yl)-1-(1-(4-fluorophenyl)-1H-indazol-5-yl)-2-methyl-5-oxopyrrolidin-3-yl)cyclopropanecarboxamide] was tested, and the IC50 (read-out: IC50 or EC50) was 100 to 1000 nM.

Work on `O=C(N[C@@H]1[C@@H](c2ccccc2)N(c2ccc3c(cnn3-c3ccc(F)cc3)c2)C(=O)[C@@H]1Cc1nccs1)C1CC1` [Example 150, N-((2R,3S,4R)-1-(1-(4-fluorophenyl)-1H-indazol-5-yl)-5-oxo-2-phenyl-4-(thiazol-2-ylmethyl)pyrrolidin-3-yl)cyclopropanecarboxamide] yielded an IC50 (read-out: IC50 or EC50) of 100 to 1000 nM.

In the case of `Cc1cccc([C@@H]2[C@@H](NC(=O)c3scnc3C)[C@@H](C)C(=O)N2c2ccc3c(cnn3-c3ccc(F)cc3)c2)c1` (racemic) [Example 71, N-[rac-(2R,3S,4R)-1-[1-(4-Fluorophenyl)-1H-indazol-5-yl]-4-methyl-2-m-tolyl-5-oxo-pyrrolidin-3-yl]-4-methyl-thiazole-5-carboxylic acid amide], the IC50 (read-out: IC50 or EC50) is reported as 100 to 1000 nM.

Work on `Cc1ncsc1C(=O)N[C@H]1[C@H](C)C(=O)N(c2ccc3c(cnn3-c3ccc(F)cc3)c2)[C@@H]1c1ccccc1` (racemic) [Example 60, N-[rac(2R,3S,4S)-1-[1-(4-Fluorophenyl)-1H-indazol-5-yl]-4-methyl-5-oxo-2-phenyl-pyrrolidin-3-yl]-4-methyl-thiazole-5-carboxylic acid amide] yielded an IC50 (read-out: IC50 or EC50) of 100 to 1000 nM.

Work on `O=C(N[C@H]1[C@H](CC2CC2)C(=O)N(c2ccc3c(cnn3-c3ccc(F)cc3)c2)[C@@H]1c1ccccc1)C1CC1` (racemic) [Example 121, N-[rac-(2R,3S,4S)-4-(Cyclopropyl-methyl)-1-[1-(4-fluorophenyl)-1H-indazol-5-yl]-5-oxo-2-phenyl-pyrrolidin-3-yl]-cyclopropanecarboxylic acid amide] yielded an IC50 (read-out: IC50 or EC50) of less than 100 nM.
